PubChem BioAssay (NCI)
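GI50 = concentration required for 50% inhibition of growth. TGI: total growth inhibition.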

Key:
Test in all cases: growth of human tumour cells (NCI), 384-well format
SF-295 CNS = tested on: SF-295 CNS
A549 NSCLC = tested on: A549 NSCLC
SK-MEL-5 melanoma = tested on: SK-MEL-5 melanoma
SK-MEL-28 melanoma = tested on: SK-MEL-28 melanoma
NCI-H23 lung = tested on: NCI-H23 lung
K-562 leukemia = tested on: K-562 leukemia
M14 melanoma = tested on: M14 melanoma
UACC-257 melanoma = tested on: UACC-257 melanoma
NCI-H322M lung = tested on: NCI-H322M lung
SK-OV-3 ovarian = tested on: SK-OV-3 ovarian
HL-60(TB) leukemia = tested on: HL-60(TB) leukemia
NCI/ADR-RES ovarian = tested on: NCI/ADR-RES ovarian
CAKI-1 renal = tested on: CAKI-1 renal
A498 renal = tested on: A498 renal
CCRF-CEM leukemia = tested on: CCRF-CEM leukemia
KM12 colon = tested on: KM12 colon
UO-31 renal = tested on: UO-31 renal
MDA-MB-468 breast = tested on: MDA-MB-468 breast
COLO 205 colon = tested on: COLO 205 colon
HT29 colon = tested on: HT29 colon
RPMI-8226 leukemia = tested on: RPMI-8226 leukemia
IGROV1 ovarian = tested on: IGROV1 ovarian
U251 glioblastoma = tested on: U251 glioblastoma
MALME-3M melanoma = tested on: MALME-3M melanoma
SF-268 CNS = tested on: SF-268 CNS
SF-539 CNS = tested on: SF-539 CNS
OVCAR-8 ovarian = tested on: OVCAR-8 ovarian
HOP-92 NSCLC = tested on: HOP-92 NSCLC
OVCAR-4 ovarian = tested on: OVCAR-4 ovarian
UACC-62 melanoma = tested on: UACC-62 melanoma
HOP-62 NSCLC = tested on: HOP-62 NSCLC
ACHN renal = tested on: ACHN renal
MCF7 breast = tested on: MCF7 breast
NCI-H522 lung = tested on: NCI-H522 lung
MDA-MB-231 breast = tested on: MDA-MB-231 breast
EKVX NSCLC = tested on: EKVX NSCLC
HS 578T breast = tested on: HS 578T breast
MOLT-4 leukemia = tested on: MOLT-4 leukemia
OVCAR-3 ovarian = tested on: OVCAR-3 ovarian
PC-3 prostate = tested on: PC-3 prostate
RXF 393 renal = tested on: RXF 393 renal
T-47D breast = tested on: T-47D breast
NCI-H460 NSCLC = tested on: NCI-H460 NSCLC
NCI-H226 lung = tested on: NCI-H226 lung
HCC-2998 colon = tested on: HCC-2998 colon
786-0 renal = tested on: 786-0 renal
SR leukemia = tested on: SR leukemia
DU-145 prostate = tested on: DU-145 prostate
MDA-MB-435 melanoma = tested on: MDA-MB-435 melanoma
OVCAR-5 ovarian = tested on: OVCAR-5 ovarian
TK-10 renal = tested on: TK-10 renal
HCT-15 colon = tested on: HCT-15 colon
SNB-75 CNS = tested on: SNB-75 CNS
BT-549 breast = tested on: BT-549 breast
SN12C renal = tested on: SN12C renal
LOX IMVI melanoma = tested on: LOX IMVI melanoma
SW-620 colon = tested on: SW-620 colon
SNB-19 CNS = tested on: SNB-19 CNS

CSc1nc(N)cc(Oc2ccc(-c3nc(Nc4cccc(C(F)(F)F)c4)n[nH]3)cc2)n1
GI50 (SF-295 CNS): 458 nM | TGI (SF-295 CNS): 1900 nM | GI50 (A549 NSCLC): 625 nM | TGI (A549 NSCLC): 5520 nM | GI50 (SK-MEL-5 melanoma): 237 nM | TGI (SK-MEL-5 melanoma): 550 nM | GI50 (SK-MEL-28 melanoma): 582 nM | TGI (SK-MEL-28 melanoma): 3640 nM | GI50 (NCI-H23 lung): 352 nM | TGI (NCI-H23 lung): 1940 nM | GI50 (K-562 leukemia): 320 nM | TGI (K-562 leukemia): 968 nM | GI50 (M14 melanoma): 323 nM | TGI (M14 melanoma): 1210 nM | GI50 (UACC-257 melanoma): 284 nM | TGI (UACC-257 melanoma): 902 nM | GI50 (NCI-H322M lung): 1850 nM | TGI (NCI-H322M lung): 6780 nM | GI50 (SK-OV-3 ovarian): 394 nM | TGI (SK-OV-3 ovarian): 2220 nM | GI50 (HL-60(TB) leukemia): 180 nM | TGI (HL-60(TB) leukemia): 325 nM | GI50 (NCI/ADR-RES ovarian): 676 nM | TGI (NCI/ADR-RES ovarian): 2390 nM | GI50 (CAKI-1 renal): 548 nM | TGI (CAKI-1 renal): 5090 nM | GI50 (A498 renal): 421 nM | TGI (A498 renal): 1920 nM | GI50 (CCRF-CEM leukemia): 175 nM | TGI (CCRF-CEM leukemia): 322 nM | GI50 (KM12 colon): 425 nM | TGI (KM12 colon): 1850 nM | GI50 (UO-31 renal): 502 nM | TGI (UO-31 renal): 14300 nM | GI50 (MDA-MB-468 breast): 202 nM | TGI (MDA-MB-468 breast): 414 nM | GI50 (COLO 205 colon): 489 nM | TGI (COLO 205 colon): 4120 nM | GI50 (HT29 colon): 354 nM | TGI (HT29 colon): 1430 nM | GI50 (RPMI-8226 leukemia): 179 nM | TGI (RPMI-8226 leukemia): 368 nM | GI50 (IGROV1 ovarian): 676 nM | TGI (IGROV1 ovarian): 3530 nM | GI50 (U251 glioblastoma): 581 nM | TGI (U251 glioblastoma): 2110 nM | GI50 (MALME-3M melanoma): 315 nM | TGI (MALME-3M melanoma): 1000 nM | GI50 (SF-268 CNS): 463 nM | TGI (SF-268 CNS): 2520 nM | GI50 (SF-539 CNS): 349 nM | TGI (SF-539 CNS): 1350 nM | GI50 (OVCAR-8 ovarian): 645 nM | TGI (OVCAR-8 ovarian): 2460 nM | GI50 (HOP-92 NSCLC): 569 nM | TGI (HOP-92 NSCLC): 3250 nM | GI50 (OVCAR-4 ovarian): 457 nM | TGI (OVCAR-4 ovarian): 2210 nM | GI50 (UACC-62 melanoma): 377 nM | TGI (UACC-62 melanoma): 2860 nM | GI50 (HOP-62 NSCLC): 452 nM | TGI (HOP-62 NSCLC): 2190 nM | GI50 (ACHN renal): 618 nM | TGI (ACHN renal): 2730 nM | GI50 (MCF7 breast): 317 nM | TGI (MCF7 breast): 1840 nM | GI50 (NCI-H522 lung): 241 nM | TGI (NCI-H522 lung): 625 nM | GI50 (MDA-MB-231 breast): 487 nM | TGI (MDA-MB-231 breast): 10000 nM | GI50 (EKVX NSCLC): 599 nM | TGI (EKVX NSCLC): 4320 nM | GI50 (HS 578T breast): 191 nM | TGI (HS 578T breast): 423 nM | GI50 (MOLT-4 leukemia): 187 nM | TGI (MOLT-4 leukemia): 337 nM | GI50 (OVCAR-3 ovarian): 229 nM | TGI (OVCAR-3 ovarian): 492 nM | GI50 (PC-3 prostate): 611 nM | TGI (PC-3 prostate): 3090 nM | GI50 (RXF 393 renal): 326 nM | TGI (RXF 393 renal): 1030 nM | GI50 (T-47D breast): 294 nM | TGI (T-47D breast): 16900 nM | GI50 (NCI-H460 NSCLC): 280 nM | TGI (NCI-H460 NSCLC): 756 nM | GI50 (NCI-H226 lung): 1070 nM | TGI (NCI-H226 lung): 3630 nM | GI50 (HCC-2998 colon): 367 nM | TGI (HCC-2998 colon): 1500 nM | GI50 ([…]-0 renal): 368 nM | TGI (786-0 renal): 1590 nM | GI50 (SR leukemia): 174 nM | TGI (SR leukemia): 333 nM | GI50 (DU-145 prostate): 998 nM | TGI (DU-145 prostate): 4080 nM | GI50 (MDA-MB-435 melanoma): 208 nM | TGI (MDA-MB-435 melanoma): 437 nM | GI50 (OVCAR-5 ovarian): 2020 nM | TGI (OVCAR-5 ovarian): 6290 nM | GI50 (TK-10 renal): 1510 nM | TGI (TK-10 renal): 6940 nM | GI50 (HCT-15 colon): 400 nM | TGI (HCT-15 colon): 1450 nM | GI50 (SNB-75 CNS): 340 nM | TGI (SNB-75 CNS): 1970 nM | GI50 (BT-549 breast): 385 nM | TGI (BT-549 breast): 1620 nM | GI50 (SN12C renal): 671 nM | TGI (SN12C renal): 5100 nM | GI50 (LOX IMVI melanoma): 523 nM | TGI (LOX IMVI melanoma): 1790 nM | GI50 (SW-620 colon): 431 nM | TGI (SW-620 colon): 6370 nM | GI50 (SNB-19 CNS): 637 nM | TGI (SNB-19 CNS): 5170 nM
